In patent US8871760B2, “[1,2,4]triazolo[3,4-C][1,4]oxazines as P2X7 modulators” (Roche Palo Alto LLC, priority 2009, dated 2014):

Target: T1, human P2X7 (UniProt Q99572)
T1 sequence (Q99572 1-595): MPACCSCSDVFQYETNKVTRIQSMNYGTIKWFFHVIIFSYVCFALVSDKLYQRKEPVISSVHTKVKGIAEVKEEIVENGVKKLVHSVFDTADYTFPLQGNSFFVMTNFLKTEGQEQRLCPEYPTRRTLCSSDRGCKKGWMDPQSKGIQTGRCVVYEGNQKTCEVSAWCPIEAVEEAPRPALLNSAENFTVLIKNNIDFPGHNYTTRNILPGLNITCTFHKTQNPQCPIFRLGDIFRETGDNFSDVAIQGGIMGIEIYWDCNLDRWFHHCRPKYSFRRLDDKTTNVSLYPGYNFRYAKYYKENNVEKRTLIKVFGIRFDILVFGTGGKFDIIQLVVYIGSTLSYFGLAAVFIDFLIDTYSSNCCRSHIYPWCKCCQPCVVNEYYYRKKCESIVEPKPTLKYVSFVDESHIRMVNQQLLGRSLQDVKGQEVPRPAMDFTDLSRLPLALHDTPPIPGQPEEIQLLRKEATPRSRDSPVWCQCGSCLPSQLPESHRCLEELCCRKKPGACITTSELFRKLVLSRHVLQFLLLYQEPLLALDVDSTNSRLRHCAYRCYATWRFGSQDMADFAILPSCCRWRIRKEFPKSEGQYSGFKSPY
Experiment: Intracellular Calcium Flux (FLIPR) Assay
Type: cell-based
Description: Intracellular Calcium Flux (FLIPR) Assay
Compound and Reagent Preparation
Stock solutions of compounds were prepared from powders as a 10 mM DMSO stock solution. These solutions were stored at RT during the two week period of these experiments to prevent freeze-thaw of the DMSO stocks. The DMSO stocks were added to the appropriate assay buffer at a concentration of 10 μM, and then diluted serially to the final concentrations that were tested. No observable precipitate was formed at any time during this process. The aqueous solutions of compounds as well as ATP (Sigma A7699) and BzATP (Sigma B6396) were prepared fresh for each day of experiment.
1321N1 cells stably expressing the full length human P2X7 gene (1321N1-hP2X7) and HEK293 cells stably expressing the full length rat P2X7 gene (HEK293-rP2X7) were obtained from the Roche Cell Culture Facility. 1321N1-hP2X7 cells were grown in Dulbecco's Modified Eagle's Medium (DMEM) high glucose supplemented with 10% FBS and […] G418. HEK293-rP2X7 cells were grown in DMEM/F-12 supplemented with 10% FBS, 1 mM CaCl2, 2 mM MgCl2, 2 mM L-Glutamine and […] G418. Cells were split such that they never became >70% confluent.
Intracellular Calcium Flux (FLIPR)
On the day prior to the experiment, 1321N1-hP2X7 or HEK293-rP2X7 cells were released into suspension with calcium-free PBS+Versene and washed by centrifugation with calcium-free PBS to remove the Versene. Cells were resuspended in growth medium at a density of 2.5×10^5 cells/mL and seeded into black walled, clear bottom 96 well plates (50,000 cells/well) approximately 18 hr prior to intracellular calcium flux experiments.
On the day of the experiment, plates were washed with FLIPR buffer (calcium- and magnesium-free Hank's Balanced Salt Solution (HBSS) supplemented with 10 mM Hepes, 2.5 mM probenecid and 2 mM calcium chloride) using a BIO-TEK 96 channel plate washer and incubated with […] fluo-3 dye at 37° C. for one hr. The dye was then removed by plate washing and the cells were allowed to equilibrate for 20 min at room temperature with antagonist or vehicle (FLIPR buffer). Agonist (100 μM BzATP final concentration for hP2X7; 5 μM BzATP final concentration or rP2X7) was added online with the FLIPR and fluorescence measurements made at 1 sec intervals for 60 sec followed by 3 sec intervals for a further 4 min (5 min total). A final addition of 5 μM ionomycin was made and the maximal BzATP-evoked fluorescence normalized to the maximal ionomycin-evoked fluorescence.

pIC50	SMILES
6.2	COc1cc(Br)c(Nc2nnc3n2C(c2ccccc2)CC2(C3)OCCO2)cc1OC (stereo not shown) [Compound 7, (2-Bromo-4,5-dimethoxy-phenyl)-(7,7′-spiro-ethylenedioxy-5-phenyl-5,6,7,8-tetrahydro-[1,2,4]triazolo[4,3-a]pyridin-3-yl)-amine]
6.76	Cc1ccc2c(Nc3nnc4n3[C@H](c3ccc(F)cc3)COC4)cccc2n1 [Compound 27, [(R)-5-(4-Fluoro-phenyl)-5,6-dihydro-8H-[1,2,4]triazolo[3,4-c][1,4]oxazin-3-yl]-(2-methyl-quinolin-5-yl)-amine]
7.17	Cc1cc(Cl)c(-n2ncccc2=O)cc1Nc1nnc2n1[C@H](c1ccc(F)cc1)COC2 [Compound 50, 2-{2-Chloro-5-[(R)-5-(4-fluoro-phenyl)-5,6-dihydro-8H-[1,2,4]triazolo[3,4-c][1,4]oxazin-3-ylamino]-4-methyl-phenyl}-2H-pyridazin-3-one]
5.1167	COc1cc(Br)c(Nc2nnc3n2[C@@H](c2ccc(F)cc2)COC3)cc1OC [Compound 12, (2-Bromo-4,5-dimethoxy-phenyl)-[(S)-5-(4-fluoro-phenyl)-5,6-dihydro-8H-[1,2,4]triazolo[3,4-c][1,4]oxazin-3-yl]-amine]
7.45	Cc1ccc(-c2cc(C)n(C[C@@H](C)O)n2)cc1Nc1nnc2n1[C@H](c1ccc(F)cc1)COC2 [Compound 31, (R)-1-(3-{3-[(R)-5-(4-Fluoro-phenyl)-5,6-dihydro-8H-[1,2,4]triazolo[3,4-c][1,4]oxazin-3-ylamino]-4-methyl-phenyl}-5-methyl-pyrazol-1-yl)-propan-2-ol]
7.75	COc1cc(Br)c(Nc2nnc3n2[C@H](c2ccc(F)cc2)COC3)cc1OC [Compound 13, (2-Bromo-4,5-dimethoxy-phenyl)-[(R)-5-(4-fluoro-phenyl)-5,6-dihydro-8H-[1,2,4]triazolo[3,4-c][1,4]oxazin-3-yl]-amine]
7.32	COc1cc(Br)c(Nc2nnc3n2C(c2ccc(F)cc2)CN(C)C3)cc1OC (stereo not shown) [Compound 26, (2-Bromo-4,5-dimethoxy-phenyl)-[5-(4-fluoro-phenyl)-7-methyl-5,6,7,8-tetrahydro-[1,2,4]triazolo[4,3-a]pyrazin-3-yl]-amine]
7.4	Cc1ccc(-c2cc(C)n(C[C@H](C)O)n2)cc1Nc1nnc2n1[C@H](c1ccc(F)cc1)COC2 [Compound 34, (S)-1-(3-{3-[(R)-5-(4-Fluoro-phenyl)-5,6-dihydro-8H-[1,2,4]triazolo[3,4-c][1,4]oxazin-3-ylamino]-4-methyl-phenyl}-5-methyl-pyrazol-1-yl)-propan-2-ol]
7.62	Cc1cc(-c2ccc(C)c(Nc3nnc4n3[C@H](c3ccc(F)cc3)COC4)c2)n[nH]1 [Compound 14, [(R)-5-(4-Fluoro-phenyl)-5,6-dihydro-8H-[1,2,4]triazolo[3,4-c][1,4]oxazin-3-yl]-[2-methyl-5-(5-methyl-1H-pyrazol-3-yl)-phenyl]-amine]
7.3267	COc1cc(Br)c(Nc2nnc3n2C(c2ccc(F)cc2)CNC3)cc1OC (stereo not shown) [Compound 17, (2-Bromo-4,5-dimethoxy-phenyl)-[5-(4-fluoro-phenyl)-5,6,7,8-tetrahydro-[1,2,4]triazolo[4,3-a]pyrazin-3-yl]-amine]
7.325	O=C1NCCCN1c1ccc(Br)c(Nc2nnc3n2[C@H](c2ccc(F)cc2)COC3)c1 [Compound 54, 1-{4-Bromo-3-[(R)-5-(4-fluoro-phenyl)-5,6-dihydro-8H-[1,2,4]triazolo-[3,4-c][1,4]oxazin-3-ylamino]-phenyl}-tetrahydro-pyrimidin-2-one]
8.035	Cn1nccc(-c2ccc(F)c(Nc3nnc4n3[C@H](c3ccc(F)cc3)COC4)c2)c1=O [Compound 55, 4-{4-Fluoro-3-[(R)-5-(4-fluoro-phenyl)-5,6-dihydro-8H-[1,2,4]triazolo[3,4-c][1,4]oxazin-3-ylamino]-phenyl}-2-methyl-2H-pyridazin-3-one]

Second part, the compound before the results:

SMILES	pIC50
Cc1ccc(-c2ccnn(CCO)c2=O)cc1Nc1nnc2n1[C@H](c1ccc(F)cc1)COC2 [Compound 52, 4-{3-[(R)-5-(4-Fluoro-phenyl)-5,6-dihydro-8H-[1,2,4]triazolo[3,4-c][1,4]oxazin-3-ylamino]-4-methyl-phenyl}-2-(2-hydroxy-ethyl)-2H-pyridazin-3-one]	8.09
Cc1cc(Cl)c(OCCO)cc1Nc1nnc2n1C(c1ccc(F)cc1)CCC2 (stereo not shown) [Compound 6, 2-{2-Chloro-5-[5-(4-fluoro-phenyl)-5,6,7,8-tetrahydro-[1,2,4]triazolo[4,3-a]pyridin-3-ylamino]-4-methyl-phenoxy}-ethanol]	6.99
Cc1ccc(-c2ccnn(C)c2=O)cc1Nc1nnc2n1[C@H](c1ccc(F)cc1)CSC2 [Compound 51, 4-{3-[(R)-5-(4-Fluoro-phenyl)-5,6-dihydro-8H-[1,2,4]triazolo[3,4-c][1,4]thiazin-3-ylamino]-4-methyl-phenyl}-2-methyl-2H-pyridazin-3-one]	8.16
Cc1cc(Cl)c(OCCO)cc1Nc1nnc2n1[C@H](c1ccc(F)cc1)CCC2 [Compound 15, 2-{2-Chloro-5-[(S)-5-(4-fluoro-phenyl)-5,6,7,8-tetrahydro-[1,2,4]triazolo[4,3-a]pyridin-3-ylamino]-4-methyl-phenoxy}-ethanol]	7.133
Cc1cc(Cl)c(OCCO)cc1Nc1nnc2n1[C@H](c1cccc(F)c1)COC2 [Compound 44, 2-{2-Chloro-5-[(R)-5-(3-fluoro-phenyl)-5,6-dihydro-8H-[1,2,4]triazolo[3,4-c][1,4]oxazin-3-ylamino]-4-methyl-phenoxy}-ethanol]	7.6
Cc1ccc(-c2cc(C)n(C[C@H](O)CO)n2)cc1Nc1nnc2n1[C@H](c1ccc(F)cc1)COC2 [Compound 35, (S)-3-(3-{3-[(R)-5-(4-Fluoro-phenyl)-5,6-dihydro-8H-[1,2,4]triazolo[3,4-c][1,4]oxazin-3-ylamino]-4-methyl-phenyl}-5-methyl-pyrazol-1-yl)-propane-1,2-diol]	7.755
Cc1cc(Cl)c(OCCO)cc1Nc1nnc2n1C(c1cccc(F)c1)COC2 (stereo not shown) [Compound 29, 2-{2-Chloro-5-[5-(3-fluoro-phenyl)-5,6-dihydro-8H-[1,2,4]triazolo[3,4-c][1,4]oxazin-3-ylamino]-4-methyl-phenoxy}-ethanol]	7.13
Fc1cccc(C2COCc3nnc(Nc4cccc5ncccc45)n32)c1 (stereo not shown) [Compound 20, [5-(3-Fluoro-phenyl)-5,6-dihydro-8H-[1,2,4]triazolo[3,4-c][1,4]oxazin-3-yl]-quinolin-5-yl-amine]	6.987
Cc1cc(-c2ccc(Cl)c(Nc3nnc4n3[C@H](c3ccc(F)cc3)COC4)c2)nn1CCO [Compound 40, 2-(3-{4-Chloro-3-[(R)-5-(4-fluoro-phenyl)-5,6-dihydro-8H-[1,2,4]triazolo[3,4-c][1,4]oxazin-3-ylamino]-phenyl}-5-methyl-pyrazol-1-yl)-ethanol]	7.54
Cc1ccc2ncccc2c1Nc1nnc2n1C(c1cccc(F)c1)COC2 (stereo not shown) [Compound 25, [5-(3-Fluoro-phenyl)-5,6-dihydro-8H-[1,2,4]triazolo[3,4-c][1,4]oxazin-3-yl]-(6-methyl-quinolin-5-yl)-amine]	7.735
